Patent publication US20240408068A1, “Helicase Primase Inhibitors For Treating Cancer In A Combination Therapy With Oncolytic Viruses” (priority 2018, published 2024)

Key:
[1] = tested on: HSV-1 ACV resistant; test: In vitro activity, HSV-1 ACV resistant; format: cell-based; details: Human alphaherpesvirus 1
Procedure: (§1) The in vitro activity of the new compounds was measured as described in WO2017/174640 and in WO2019/068817.

[2] = tested on: CT26 tumor; test: oHSV animal model: tumor volume in syngeneic bilaterally-inoculated subcutaneous CT26 tumor-bearing mice; format: in vivo, Balbc/j mice
Procedure: Assessment of the efficacy of an oncolytic virus treatment in the presence and absence of a potential virostatic test compound (Example 7(-)) in a syngeneic bilaterally-inoculated subcutaneous CT26 tumor-bearing mouse model.
CT26 tumor cells (500 000 cell in 100 μL) were subcutaneously inoculated bilaterally into the right and left flanks of 9 week-old immuno-competent female Balbc/j mice after 20 days acclimation (Provider: Charles River Laboratories—BP 0109—F 69592 L'Arbresle Cedex).
The inoculation procedure of colorectal CT26 tumors in mice was as follows: • At the end of the 20 days acclimation period, and in order to identify the animal all along the experimental procedure (for tumor volume monitoring in particular), mice were identified using tattoo. • The day before tumor cell inoculation, mice have been shaved at the injection sites, under isoflurane gas anesthesia (4% induction and 2% maintain). • The day of inoculation, mice were anesthetized with gas anesthesia with 4% isoflurane induction and 2% isoflurane for anesthesia maintaining. • Tumor cells to be inoculated were resuspended in sterile PBS and the needed volume was loaded in 1 ml syringe with a 26 gauge needle (500000 cells/100 μL).
Virus injection (with HSV-1 Herpes Simplex Virus or vehicle) was performed with a 29G gauge needle (0.5 mL) insulin syringe when tumors reached an average volume of 40 mm^3(on day 7). At this time, virus was injected intratumorally (50 μL corresponding to 5×10^6 HSV-1 (experimental groups 3, 5, 6 and 8) or 100 μL corresponding to 1×10^8 HSV-1 (experimental groups 4 and 7)), into the tumor of the right flank.
Pharmacological animal groups (8 animal per group, 64 animals in total) were organized as such: • 1. Control virus-untreated group: test compound vehicle (200 μL, 5% DMSO; 0.5% hydroxypropylmethylcellulose (HPMC) in PBS) oral gavage (20 gauge needle standard suspension applicator), once a day, for 10 days and starting 72 h after virus injection for the other groups. • 2. Control virus vehicle-treated group: 50 μL of virus vehicle, intratumoral injection when tumors reached an average volume of app. 40 mm^3, with test compound vehicle, oral gavage, once a day, for 10 days and starting 72 h after vehicle virus injection. • 3. HSV-1 (quantity 1; 5×10^6 pfu)-treated group: 50 μL of HSV-1 (5×10^6), intratumoral injection when tumors reached an average volume of app. 40 mm^3, with test compound vehicle, oral gavage, once a day, for 10 days and starting 72 h after virus injection, and with anti-PD1/anti-CTLA4 vehicle, intraperitoneal injection (200 μL PBS) on the same day as the virus injection, and then 3 administrations spaced 3 days apart each other (day 7, 10, 13 and 16). • 4. HSV-1 (quantity 2; 1×10^8 pfu)-treated group: 100 μL of HSV-1 (1×10^8) intratumoral injection when tumors reached an average volume of app. 40 mm^3, with test compound vehicle, oral gavage, once a day, for 10 days and starting 72 h after virus injection. • 5. HSV-1 (quantity 1; 5×10^6 pfu)-test compound-treated group: 50 μL of HSV-1 (5×10^6), intratumoral injection when tumors reached an average volume of app. 40 mm^3, with Example 7(-) (10 mg/kg, 20 mg/mL stock in DMSO, final 1 mg/mL, 5% DMSO; 0.5% HPMC in PBS (w/v), the suspension has been sonicated (2 min ultrasound bath, room temperature)), oral gavage (200 μL), once a day, for 10 days and starting 72 h after virus injection, and with anti-PD1/anti-CTLA4 vehicle, intraperitoneal injection (200 μL, PBS) on the same day as the virus injection, and then 3 administrations spaced 3 days apart each other (day 7, 10, 13 and 16). • 6. […]

[3] = tested on: HSV-1; test: In vitro activity, HSV-1 infected Vero cells; format: cell-based; details: Human alphaherpesvirus 1, Vero
Procedure: as §1

[4] = day 0, with HSV-1 1·10^8, 10 mg/kg po from 72 h pi
[5] = day 0, with HSV-1 5·10^6, 10 mg/kg po from 0 h pi
[6] = day 0, with HSV-1 5·10^6, 10 mg/kg po from 72 h pi
[7] = day 5, with HSV-1 1·10^8, 10 mg/kg po from 72 h pi
[8] = day 5, with HSV-1 5·10^6, 10 mg/kg po from 0 h pi
[9] = day 5, with HSV-1 5·10^6, 10 mg/kg po from 72 h pi
[10] = day 7, with HSV-1 1·10^8, 10 mg/kg po from 72 h pi
[11] = day 7, with HSV-1 5·10^6, 10 mg/kg po from 0 h pi
[12] = day 7, with HSV-1 5·10^6, 10 mg/kg po from 72 h pi
[13] = day 10, with HSV-1 1·10^8, 10 mg/kg po from 72 h pi
[14] = day 10, with HSV-1 5·10^6, 10 mg/kg po from 0 h pi
[15] = day 10, with HSV-1 5·10^6, 10 mg/kg po from 72 h pi
[16] = day 12, with HSV-1 1·10^8, 10 mg/kg po from 72 h pi
[17] = day 12, with HSV-1 5·10^6, 10 mg/kg po from 0 h pi
[18] = day 12, with HSV-1 5·10^6, 10 mg/kg po from 72 h pi
[19] = day 14, with HSV-1 1·10^8, 10 mg/kg po from 72 h pi
[20] = day 14, with HSV-1 5·10^6, 10 mg/kg po from 0 h pi
[21] = day 14, with HSV-1 5·10^6, 10 mg/kg po from 72 h pi
[22] = day 17, with HSV-1 1·10^8, 10 mg/kg po from 72 h pi
[23] = day 17, with HSV-1 5·10^6, 10 mg/kg po from 0 h pi
[24] = day 17, with HSV-1 5·10^6, 10 mg/kg po from 72 h pi
[25] = day 19, with HSV-1 1·10^8, 10 mg/kg po from 72 h pi
[26] = day 19, with HSV-1 5·10^6, 10 mg/kg po from 0 h pi
[27] = day 19, with HSV-1 5·10^6, 10 mg/kg po from 72 h pi

## Cc1nc(N(C)C(=O)Cc2ccc(-c3cc(F)ccc3F)cc2)sc1[S@@](C)(=N)=O [Example 7(−), (−)-(S)-2-(2′,5′-Difluoro-[1,1′-biphenyl]-4-yl)-N-methyl-N-(4-methyl-5-(S-methylsulfonimidoyl)thiazol-2-yl)acetamide]
[1]
  IC50: 10 to 50 nM
[2]; [4]
  Median tumor volume - Left tumors: 0 mm^3
  Median tumor volume - Right tumors: 0 mm^3
[2]; day 0, with HSV-1 5·10^6 + aPD-1 + aCTLA4, 10 mg/kg po from 72 h pi
  Median tumor volume - Right tumors: 0 mm^3
[2]; day 0, with HSV-1 5·10^6 + aPD-1 + aCTLM, 10 mg/kg po from 72 h pi
  Median tumor volume - Left tumors: 0 mm^3
[2]; [5]
  Median tumor volume - Left tumors: 0 mm^3
  Median tumor volume - Right tumors: 0 mm^3
[2]; [6]
  Median tumor volume - Left tumors: 0 mm^3
  Median tumor volume - Right tumors: 0 mm^3
[2]; [7]
  Median tumor volume - Left tumors: 18.17 mm^3
  Median tumor volume - Right tumors: 16.55 mm^3
[2]; day 5, with HSV-1 5·10^6 + aPD-1 + aCTLA4, 10 mg/kg po from 72 h pi
  Median tumor volume - Right tumors: 16.235 mm^3
[2]; day 5, with HSV-1 5·10^6 + aPD-1 + aCTLM, 10 mg/kg po from 72 h pi
  Median tumor volume - Left tumors: 14.66 mm^3
[2]; [8]
  Median tumor volume - Left tumors: 15.755 mm^3
  Median tumor volume - Right tumors: 16.705 mm^3
[2]; [9]
  Median tumor volume - Left tumors: 14.155 mm^3
  Median tumor volume - Right tumors: 17.665 mm^3
[2]; [10]
  Median tumor volume - Left tumors: 23.55 mm^3
  Median tumor volume - Right tumors: 39.735 mm^3
[2]; day 7, with HSV-1 5·10^6 + aPD-1 + aCTLA4, 10 mg/kg po from 72 h pi
  Median tumor volume - Right tumors: 31.03 mm^3
[2]; day 7, with HSV-1 5·10^6 + aPD-1 + aCTLM, 10 mg/kg po from 72 h pi
  Median tumor volume - Left tumors: 18.32 mm^3
[2]; [11]
  Median tumor volume - Left tumors: 21.61 mm^3
  Median tumor volume - Right tumors: 25.5 mm^3
[2]; [12]
  Median tumor volume - Left tumors: 22.85 mm^3
  Median tumor volume - Right tumors: 36.435 mm^3
[2]; [13]
  Median tumor volume - Left tumors: 33.055 mm^3
  Median tumor volume - Right tumors: 74.725 mm^3
[2]; day 10, with HSV-1 5·10^6 + aPD-1 + aCTLA4, 10 mg/kg po from 72 h pi
  Median tumor volume - Right tumors: 72.935 mm^3
[2]; day 10, with HSV-1 5·10^6 + aPD-1 + aCTLM, 10 mg/kg po from 72 h pi
  Median tumor volume - Left tumors: 47.345 mm^3
[2]; [14]
  Median tumor volume - Left tumors: 43.385 mm^3
  Median tumor volume - Right tumors: 43.32 mm^3
[2]; [15]
  Median tumor volume - Left tumors: 55.18 mm^3
  Median tumor volume - Right tumors: 45.605 mm^3
[2]; [16]
  Median tumor volume - Left tumors: 92.98 mm^3
  Median tumor volume - Right tumors: 115.17 mm^3
[2]; day 12, with HSV-1 5·10^6 + aPD-1 + aCTLA4, 10 mg/kg po from 72 h pi
  Median tumor volume - Right tumors: 94.56 mm^3
[2]; day 12, with HSV-1 5·10^6 + aPD-1 + aCTLM, 10 mg/kg po from 72 h pi
  Median tumor volume - Left tumors: 58.12 mm^3
[2]; [17]
  Median tumor volume - Left tumors: 73.31 mm^3
  Median tumor volume - Right tumors: 48.78 mm^3
[2]; [18]
  Median tumor volume - Left tumors: 121.82 mm^3
  Median tumor volume - Right tumors: 76.655 mm^3
[2]; [19]
  Median tumor volume - Left tumors: 224.29 mm^3
  Median tumor volume - Right tumors: 142.49 mm^3
[2]; day 14, with HSV-1 5·10^6 + aPD-1 + aCTLA4, 10 mg/kg po from 72 h pi
  Median tumor volume - Right tumors: 105.02 mm^3
[2]; day 14, with HSV-1 5·10^6 + aPD-1 + aCTLM, 10 mg/kg po from 72 h pi
  Median tumor volume - Left tumors: 71.44 mm^3
[2]; [20]
  Median tumor volume - Left tumors: 112.98 mm^3
  Median tumor volume - Right tumors: 39.01 mm^3
[2]; [21]
  Median tumor volume - Left tumors: 141.445 mm^3
  Median tumor volume - Right tumors: 86.87 mm^3
[2]; [22]
  Median tumor volume - Left tumors: 348.78 mm^3
  Median tumor volume - Right tumors: 93.34 mm^3
[2]; day 17, with HSV-1 5·10^6 + aPD-1 + aCTLA4, 10 mg/kg po from 72 h pi
  Median tumor volume - Right tumors: 60.17 mm^3
[2]; day 17, with HSV-1 5·10^6 + aPD-1 + aCTLM, 10 mg/kg po from 72 h pi
  Median tumor volume - Left tumors: 66.86 mm^3
[2]; [23]
  Median tumor volume - Left tumors: 169.68 mm^3
  Median tumor volume - Right tumors: 60.71 mm^3
[2]; [24]
  Median tumor volume - Left tumors: 219.98 mm^3
  Median tumor volume - Right tumors: 99.21 mm^3
[2]; [25]
  Median tumor volume - Left tumors: 352.82 mm^3
  Median tumor volume - Right tumors: 100 mm^3
[2]; day 19, with HSV-1 5·10^6 + aPD-1 + aCTLA4, 10 mg/kg po from 72 h pi
  Median tumor volume - Right tumors: 84.68 mm^3
[2]; day 19, with HSV-1 5·10^6 + aPD-1 + aCTLM, 10 mg/kg po from 72 h pi
  Median tumor volume - Left tumors: 49.84 mm^3
[2]; [26]
  Median tumor volume - Left tumors: 474.53 mm^3
  Median tumor volume - Right tumors: 72.69 mm^3
[2]; [27]
  Median tumor volume - Left tumors: 285.49 mm^3
  Median tumor volume - Right tumors: 105 mm^3
[3]
  IC50: 10 to 50 nM
